Measurements from patent US11260083B2, “Compositions and methods for treating and preventing graft versus host disease” (The Regents of the University of Michigan, priority 2016, dated 2022).

B1: IFN-γ: proinflammatory mediator (protein, UniProt P01579 24-161, looked up)
Interferon gamma: QDPYVKEAENLKKYFNAGHSDVADNGTLFLGILKNWKEESDRKIMQSQIVSFYFKLFKNFKDDQSIQKSVETIKEDMNVKFFNSNKKKRDDFEKLTNYSVTDLNVQRKAIHELIQVMAELSPAAKTGKRKRSQMLFRG

Experiments:
[1] = mouse, in vivo
Description: Animals were intragastrically gavaged with a bolus (2 g/kg) of either labeled ^13C2-Butyrate or non-labeled ^12C-Butyrate. The small and large intestines were then harvested 6 hours later and prepared for analysis as above. […] The ratio of the labeled to unlabeled peak areas were adjusted to incorporate natural distribution of ^13C label and expressed as percentage of ^13C incorporation into the butyrate pool in the luminal contents (Lumen) and intestinal tissue.
It was next determined whether there was a difference in the uptake and metabolism of the exogenously administered butyrate between the syngeneic and allogeneic recipients. To this end, metabolic flux analysis (MFA) assessing label incorporation of heavy 13C labeled butyrate into luminal and intestinal tissue butyrate pools was performed by utilizing GC/MS as above. Recipients of syngeneic and allogeneic transplant were treated 7 days after BMT with a bolus of either^13C-butyrate or regular ^12C-butyrate, which served as the control. The IECs and luminal contents were harvested 6 hours later and analyzed for incorporation of ^13C.

SLC5A8 = assay: Primary IECs cultured with proinflammatory mediators; type: cell-based, mouse; details: primary IECs exposed to IFN-γ and/or TNF
Description: It was next explored whether the diminished concentration of butyrate observed in the intestinal tissue was from impaired uptake of butyrate following allo-BMT. To this end, the expression of the known butyrate monocarboxylate transporter (SLC5A8) and the receptor of butyrate (GPR43) was analyzed in IECs following allo-BMT (Ganapathy, V., Thangaraju, M., Prasad, P. D., Martin, P. M. & Singh, N. Transporters and receptors for short-chain fatty acids as the molecular link between colonic bacteria and the host. Curr Opin Pharmacol 13, 869-874 (2013); Furusawa, Y. et al. Commensal microbe-derived butyrate induces the differentiation of colonic regulatory T cells. Nature (2013)). […] Primary IECs were cultured with proinflammatory mediators (IFN-γ and/or TNF) and expression of the butyrate transporter SLC5A8 was analyzed.

[2] = IECs from large intestine, allogeneic vs syngeneic recipients

Molecule | 13C heavy butyrate in the intestinal tissue [1] | heavy carbon in malate [2] | incorporation into succinate [2] | 13C incorporation in malate (IECs from small and large intestines combined, allo-BMT vs syngeneic) | expression of Slc5a8 (SLC5A8)
CC[13CH2][13C](=O)[O-].[Na+] [^13C-butyrate, Sodium butyrate-1,2-^13C2] | significantly decreased | significant difference | trend towards greater incorporation | overall increased level | 
B1 |  |  |  |  | significantly decreased
